# Measured values as given in ChEMBL document CHEMBL1143849, “Two new dfr genes in trimethoprim-resistant integron-negative Escherichia coli isolates” (2007).
# Assays:
# Escherichia coli [1] = assay: Antimicrobial activity against Escherichia coli U93 isolate by disk diffusion test
# Escherichia coli [2] = assay: Antimicrobial activity against Escherichia coli U21 isolate by disk diffusion test
smiles,measurement,setting,value
COc1cc(Cc2cnc(N)nc2N)cc(OC)c1OC [TRIMETHOPRIM],MIC,Escherichia coli [1],> 32 µg/mL
same,MIC,Escherichia coli [2],> 32 µg/mL
